Data reported in patent US12275731B2, “Azaindole inhibitors of wild-type and mutant forms of LRRK2” (DANA-FARBER CANCER INSTITUTE, INC., priority 2018, dated 2025).
pIC50: −log10 of the molar value.

Columns and labels:
[1] = target: T1, LRRK2 WT enzyme (Homo sapiens, UniProt Q5S007); test: LRRK2 wild type kinase inhibition assay (ADP-Glo); assay type: biochemical; settings: Table 2, class symbols; read-out: Enzyme activity against LRRK2 WT (IC50)
T1 construct: purchased Thermo Fisher Scientific PR8604B
T1 sequence (Q5S007 970-2527 limits assumed): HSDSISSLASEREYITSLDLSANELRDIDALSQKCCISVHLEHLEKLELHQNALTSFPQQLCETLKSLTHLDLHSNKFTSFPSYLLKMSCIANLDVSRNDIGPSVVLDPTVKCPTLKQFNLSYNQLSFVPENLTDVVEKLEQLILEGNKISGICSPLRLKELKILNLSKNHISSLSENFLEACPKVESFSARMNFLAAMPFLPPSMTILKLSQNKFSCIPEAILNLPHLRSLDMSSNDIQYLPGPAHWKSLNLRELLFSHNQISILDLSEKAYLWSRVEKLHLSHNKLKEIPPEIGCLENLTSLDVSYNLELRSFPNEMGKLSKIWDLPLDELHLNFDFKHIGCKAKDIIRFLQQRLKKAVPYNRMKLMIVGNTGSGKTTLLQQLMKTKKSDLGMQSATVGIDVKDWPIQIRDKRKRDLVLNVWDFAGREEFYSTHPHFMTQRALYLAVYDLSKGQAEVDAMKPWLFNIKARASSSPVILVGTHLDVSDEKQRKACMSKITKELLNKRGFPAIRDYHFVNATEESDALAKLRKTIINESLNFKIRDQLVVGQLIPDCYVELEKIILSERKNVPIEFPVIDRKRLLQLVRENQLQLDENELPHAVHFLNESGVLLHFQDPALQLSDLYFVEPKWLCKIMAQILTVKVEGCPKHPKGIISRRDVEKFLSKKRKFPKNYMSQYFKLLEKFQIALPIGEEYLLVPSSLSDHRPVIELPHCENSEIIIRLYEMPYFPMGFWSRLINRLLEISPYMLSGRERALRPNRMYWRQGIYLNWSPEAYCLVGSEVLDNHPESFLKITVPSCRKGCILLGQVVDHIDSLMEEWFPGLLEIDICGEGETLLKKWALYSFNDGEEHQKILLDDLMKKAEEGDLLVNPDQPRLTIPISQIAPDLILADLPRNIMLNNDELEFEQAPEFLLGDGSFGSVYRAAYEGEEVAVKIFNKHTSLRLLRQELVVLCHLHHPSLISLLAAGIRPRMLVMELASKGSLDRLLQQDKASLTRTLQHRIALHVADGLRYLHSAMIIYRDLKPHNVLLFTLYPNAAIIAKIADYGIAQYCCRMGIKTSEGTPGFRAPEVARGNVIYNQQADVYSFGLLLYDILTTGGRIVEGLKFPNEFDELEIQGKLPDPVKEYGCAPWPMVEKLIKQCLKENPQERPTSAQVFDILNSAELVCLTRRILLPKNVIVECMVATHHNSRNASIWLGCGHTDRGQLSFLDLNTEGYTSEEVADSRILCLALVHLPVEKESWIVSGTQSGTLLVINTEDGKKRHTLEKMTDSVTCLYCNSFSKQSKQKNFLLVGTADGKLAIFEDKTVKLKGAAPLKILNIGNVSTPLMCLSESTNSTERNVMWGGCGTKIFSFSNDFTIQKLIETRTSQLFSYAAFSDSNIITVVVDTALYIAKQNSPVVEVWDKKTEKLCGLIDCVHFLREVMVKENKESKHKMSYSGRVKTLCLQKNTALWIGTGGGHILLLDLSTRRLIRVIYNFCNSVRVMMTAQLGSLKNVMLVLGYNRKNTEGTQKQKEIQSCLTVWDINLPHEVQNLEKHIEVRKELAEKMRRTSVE
Experimental: (§1) IC50 experiments were performed for inventive compounds. An exemplary kit to perform this assay includes the Adapta™ Screening Protocol and Assay Conditions by Invitrogen™ (Fisher Scientific™, Catalog No. PV5099).
(§2) All LRRK2 kinase inhibition assays were conducted by using Promega ADP-Glo™ Kinase assay systems (Catalog number; V4475). Inhibitors were tested with 12 concentrations over a 5-fold serial dilution series (50 μM, 10 μM, 2 μM, 400 nM, 80 nM, 16 nM, 3.2 nM, […]) and PF06447475 as positive control. For the LRRK2 wild type (WT) enzyme assay, each inhibitor was mixed with 0.2 μg/μL of substrate (LRRKtide, SignalChem, Richmond, BC, Canada), […] (Invitrogen™, Carlsbad, CA), 24 ng of LRRK2 WT enzyme (Thermo Fisher Scientific, PR8604B) in 384-well plate. For LRRK G2019S, each compound was mixed with 0.2 μg/μL of substrate, […], 16 ng of LRRK2 G2019S enzyme (SignalChem, L10-12GG). All samples were diluted with kinase reaction buffer (40 mmol/L TrisHCl, 10 mmol/L MgCl2, and 0.1 μg/μL BSA (bovine serum albumin)). After 2 hours at 25° C., ADP-Glo™ (Promega, Madison, WI) reagent was added and the samples were incubated at rt for 40 min. Finally, Kinase Detection Reagent was added and the resulting mixtures were allowed to react at rt for 10 min. Luminescence signals were detected using Synergy™ Neo2 microplate reader (Bio-Tek). Compound inhibition curve was fitted using Graphpad Prism 8.0 software.

[2] = target: LRRK2(G2019S) (Homo sapiens, UniProt Q5S007, G2019S); test: LRRK2 G2019S kinase inhibition assay (ADP-Glo); assay type: biochemical; parameters: purchased SignalChem L10-12GG; settings: Table 2, class symbols; read-out: Enzyme activity against LRRK2 G2019S (IC50)
Sequence of LRRK2(G2019S) (Q5S007 970-2527 G2019S limits assumed): as the sequence (Q5S007 970-2527 limits assumed) above, with G1050S counted along it
Experimental: as §1, §2

[3] = test system: FLT3(ITD); test: KinomeScan profiling; assay type: binding; settings: 1 μM
Outline: (§3)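 Selectivity was assessed by binding competition at 1 μM against 468 kinases. Values below 35% of control define an interaction.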

[4] = test system: FLT3(ITD, D835V); test: KinomeScan profiling; assay type: binding; settings: 1 μM
Outline: as §3

[5] = test system: FLT3(ITD, F691L); test: KinomeScan profiling; assay type: binding; settings: 1 μM
Outline: as §3

Structure (SMILES) | pIC50 [1] | pIC50 [2] | % control [3] [%] | % control [4] [%] | % control [5] [%]
CNc1c(-c2cnn([C@H]3CCN(C(C)=O)C[C@@H]3F)c2)cnc2[nH]cc(Cl)c12 [Compound 77, 1-((3S,4S)-4-(4-(3-chloro-4-(methylamino)-1H-pyrrolo[2,3-b]pyridin-5-yl)-1H-pyrazol-1-yl)-3-fluoropiperidin-1-yl)ethan-1-one] | 7.00 to 8.00 | 7.00 to 8.00 | – | – | –
O=C(c1ccc(-c2cnc3[nH]cc(Cl)c3c2NC2CCCC2)cc1)N1CCC(N2CCOCC2)CC1 [Compound 101, (4-(3-chloro-4-(cyclopentylamino)-1H-pyrrolo[2,3-b]pyridin-5-yl)phenyl)(4-morpholinopiperidin-1-yl)methanone] | – | – | 41 | 55 | 49
CNc1c(-c2ccc(C(=O)N3CCC(N4CCOCC4)CC3)cc2)cnc2[nH]cc(Cl)c12 [Compound 96, (4-(3-chloro-4-(methylamino)-1H-pyrrolo[2,3-b]pyridin-5-yl)phenyl)(4-morpholinopiperidin-1-yl)methanone] | 7.00 to 8.00 | > 8.00 | 8.1 | 3.6 | 0
